Assays:
Format in all cases: cell-based, murine and human
Details in all cases: 20-24 hours
[1] = molecular target: T1, PPAR-gamma ligand binding domain fused to GAL4 DNA binding domain (UniProt P37231); assay: Transient transfection transactivation assay in CV-1 cells, PPAR-gamma (GAL4 chimera, luciferase reporter)
T1 sequence (P37231 1-505): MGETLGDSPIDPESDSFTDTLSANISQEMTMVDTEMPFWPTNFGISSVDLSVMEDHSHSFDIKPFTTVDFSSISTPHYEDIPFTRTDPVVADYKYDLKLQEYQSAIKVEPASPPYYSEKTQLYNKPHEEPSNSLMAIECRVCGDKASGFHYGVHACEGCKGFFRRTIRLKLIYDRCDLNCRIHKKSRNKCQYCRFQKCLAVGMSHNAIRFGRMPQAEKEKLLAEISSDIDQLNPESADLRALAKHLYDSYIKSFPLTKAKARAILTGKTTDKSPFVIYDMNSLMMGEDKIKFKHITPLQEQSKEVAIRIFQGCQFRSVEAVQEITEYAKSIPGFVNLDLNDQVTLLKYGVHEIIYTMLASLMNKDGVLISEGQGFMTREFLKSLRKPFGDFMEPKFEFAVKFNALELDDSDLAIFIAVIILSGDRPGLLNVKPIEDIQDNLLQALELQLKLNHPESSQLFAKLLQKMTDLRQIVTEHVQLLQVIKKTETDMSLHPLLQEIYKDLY
From the text: (§1) Compounds may be screened for functional potency in transient transfection assays in CV-1 cells for their ability to activate the PPAR subtypes (transactivation assay). A previously established chimeric receptor system was utilized to allow comparison of the relative transcriptional activity of the receptor subtypes on the same synthetic response element and to prevent endogenous receptor activation from complicating the interpretation of results. See, for example, Lehmann, J. M.; Moore, L. B.; Smith-Oliver, T. A; Wilkinson, W. O.; Willson, T. M.; Kliewer, S. A., An antidiabetic thiazolidinedione is a high affinity ligand for peroxisome proliferator-activated receptor […], J. Biol. Chem., 1995, 270, 12953-6. The ligand binding domains for murine and human PPAR-alpha, PPAR-gamma, and PPAR-delta are each fused to the yeast transcription factor GAL4 DNA binding domain. CV-1 cells were transiently transfected with expression vectors for the respective PPAR chimera along with a reporter construct containing four or five copies of the GAL4 DNA binding site driving expression of luciferase. After 8-16 h, the cells are replated into multi-well assay plates and the media is exchanged to phenol-red free DME medium supplemented with 5% delipidated calf serum. 4 hours after replating, cells were treated with either compounds or 1% DMSO for 20-24 hours. Luciferase activity was then assayed with Britelite (Perkin Elmer) following the manufacturer's protocol and measured with either the Perkin Elmer Viewlux or Molecular Devices Acquest (see, for example, Kliewer, S. A., et. al. Cell 1995, 83, 813-819). Rosiglitazone is used as a positive control in the PPARγ assay. Wy-14643 and GW7647 are used as positive controls in the PPARα assay. GW501516 is used as the positive control in the PPARδ assay.

[2] = molecular target: T2, PPAR-delta ligand binding domain fused to GAL4 DNA binding domain (UniProt Q03181); assay: Transient transfection transactivation assay in CV-1 cells, PPAR-delta (GAL4 chimera, luciferase reporter)
T2 sequence (Q03181 1-441): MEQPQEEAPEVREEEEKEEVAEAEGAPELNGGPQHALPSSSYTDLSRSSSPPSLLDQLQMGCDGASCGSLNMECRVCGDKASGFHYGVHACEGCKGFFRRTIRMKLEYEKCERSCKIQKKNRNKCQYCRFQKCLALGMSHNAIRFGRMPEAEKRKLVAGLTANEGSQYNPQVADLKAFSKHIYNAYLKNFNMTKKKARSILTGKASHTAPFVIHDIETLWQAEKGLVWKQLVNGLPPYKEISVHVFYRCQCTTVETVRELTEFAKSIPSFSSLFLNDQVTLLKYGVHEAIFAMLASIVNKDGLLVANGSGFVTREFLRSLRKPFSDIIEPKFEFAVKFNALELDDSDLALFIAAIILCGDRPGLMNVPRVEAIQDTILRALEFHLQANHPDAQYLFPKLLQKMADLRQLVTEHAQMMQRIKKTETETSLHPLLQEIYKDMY
From the text: as §1

[3] = molecular target: T3, PPAR-alpha ligand binding domain fused to GAL4 DNA binding domain (UniProt Q07869); assay: Transient transfection transactivation assay in CV-1 cells, PPAR-alpha (GAL4 chimera, luciferase reporter)
T3 sequence (Q07869 1-468): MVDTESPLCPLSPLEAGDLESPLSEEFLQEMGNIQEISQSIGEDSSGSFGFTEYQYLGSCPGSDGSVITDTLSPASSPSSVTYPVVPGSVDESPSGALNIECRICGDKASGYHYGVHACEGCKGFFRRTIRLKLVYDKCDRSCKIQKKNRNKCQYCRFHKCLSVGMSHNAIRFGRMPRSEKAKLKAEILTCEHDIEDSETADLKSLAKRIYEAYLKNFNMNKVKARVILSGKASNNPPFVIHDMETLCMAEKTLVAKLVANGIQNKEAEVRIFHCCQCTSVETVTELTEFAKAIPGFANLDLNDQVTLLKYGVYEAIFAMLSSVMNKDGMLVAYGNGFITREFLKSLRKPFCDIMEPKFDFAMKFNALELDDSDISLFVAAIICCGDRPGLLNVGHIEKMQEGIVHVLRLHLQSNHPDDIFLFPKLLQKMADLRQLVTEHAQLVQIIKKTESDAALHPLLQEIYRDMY
From the text: as §1

SMILES	EC50 [1] [µM]	EC50 [2] [µM]	EC50 [3] [µM]
C[C@@H]1CN(CCc2ccc(C(F)(F)F)c(F)c2)C[C@H](C)N1S(=O)(=O)c1cccc2c1CC(C(=O)O)C2 (stereo partly drawn) [Example 26, 4-(4-(3-Fluoro-4-(trifluoromethyl)phenethyl)-(cis)-2,6-dimethylpiperazin-1-ylsulfonyl)-2,3-dihydro-1H-indene-2-carboxylic acid]	> 100	< 5	> 100
C[C@@H]1CN(C(=O)Cc2ccc(OC(F)(F)F)cc2)C[C@H](C)N1S(=O)(=O)c1cccc2c1CC(C(=O)O)C2 (stereo partly drawn) [Example 7, 4-(cis-2,6-Dimethyl-4-(2-(4-(trifluoromethoxy)phenyl)acetyl)piperazin-1-ylsulfonyl)-2,3-dihydro-1H-indene-2-carboxylic acid]	> 100	< 5	> 100
C[C@@H]1CN(CCc2ccc(Cl)c(Cl)c2)C[C@H](C)N1S(=O)(=O)c1cccc2c1CC(C(=O)O)C2 (stereo partly drawn) [Example 27]	> 100	< 5	> 100
C[C@@H]1CN(Cc2ccc(OC(F)(F)F)c(Cl)c2)C[C@H](C)N1S(=O)(=O)c1cccc2c1CC(C(=O)O)C2 (stereo partly drawn) [Example 4, 4-(4-(3-Chloro-4-(trifluoromethoxy)benzyl)-cis-2,6-dimethylpiperazin-1-ylsulfonyl)2,3-dihydro-1H-indene-2-carboxylic acid]	5 to 100	< 5	5 to 100
C[C@@H]1CN(Cc2ccc(OC(F)(F)F)c(F)c2)C[C@H](C)N1S(=O)(=O)c1cccc2c1CC(C(=O)O)C2 (stereo partly drawn) [Example 5]	5 to 100	< 5	5 to 100
O=C(O)C1Cc2cccc(S(=O)(=O)N3CCN(C(=O)c4ccc(OC(F)(F)F)cc4)CC3)c2C1 (stereo not drawn) [Example 18, 4-(4-(4-(trifluoromethoxy)benzoyl)piperazin-1-ylsulfonyl)-2,3-dihydro-1H-indene-2-carboxylic acid]	> 100	5 to 100	> 100
C[C@@H]1CN(C(=O)c2ccc(OC(F)(F)F)cc2)C[C@H](C)N1S(=O)(=O)c1cccc2c1CC(C(=O)O)C2 (stereo partly drawn) [Example 9, 4-(cis-2,6-Dimethyl-4-(4-(trifluoromethoxy)benzoyl)piperazin-1-ylsulfonyl)-2,3-dihydro-1H-indene-2-carboxylic acid]	> 100	5 to 100	> 100
C[C@@H]1CN(CCc2ccc(OC(F)(F)F)cc2)C[C@H](C)N1S(=O)(=O)c1cccc2c1CC(C(=O)O)C2 (mixture of isomers) [Example 12A, 4-(cis-2,6-Dimethyl-4-(4-(trifluoromethoxy)phenethyl)piperazin-1-ylsulfonyl)-2,3-dihydro-1H-indene-2-carboxylic acid]	> 100	< 5	> 100
O=C(O)C1Cc2cccc(S(=O)(=O)N3CCN(CCCc4ccc(OC(F)(F)F)cc4)CC3)c2C1 (stereo not drawn) [Example 22, 4-(4-(3-(4-(Trifluoromethoxy)phenyl)propyl)piperazin-1-ylsulfonyl)-2,3-dihydro-1H-indene-2-carboxylic acid]	< 5	< 5	5 to 100
C[C@@H]1CN(CC2(c3ccc(Cl)cc3)CC2)C[C@H](C)N1S(=O)(=O)c1cccc2c1CC(C(=O)O)C2 (stereo partly drawn) [Example 25, 4-(4-((1-(4-chlorophenyl)cyclopropyl)methyl)-(cis)-2,6-dimethylpiperazin-1-ylsulfonyl)-2,3-dihydro-1-H-indene-2-carboxylic acid]	> 100	< 5	> 100
C[C@@H]1CN(CCc2ccc(SC(F)(F)F)cc2)C[C@H](C)N1S(=O)(=O)c1cccc2c1CC(C(=O)O)C2 (stereo partly drawn) [Example 23, 4-((cis)-2,6-Dimethyl-4-(4-(trifluoromethylthio)phenethyl)piperazin-1-ylsulfonyl)-2,3-dihydro-1H-indene-2-carboxylic acid]	5 to 100	< 5	5 to 100
O=C(O)C1Cc2cccc(S(=O)(=O)N3CCN(C(=O)Cc4ccc(C(F)(F)F)cc4)CC3)c2C1 (stereo not drawn) [Example 20, 4-(4-(2-(4-(trifluoromethyl)phenyl)acetyl)piperazin-1-ylsulfonyl)-2,3-dihydro-1H-indene-2-carboxylic acid]	5 to 100	5 to 100	> 100
O=C(O)C1Cc2cccc(S(=O)(=O)N3CCN(Cc4cccc(OC(F)(F)F)c4)CC3)c2C1 (stereo not drawn) [Example 2]	< 5	< 5	> 100
C[C@@H]1CN(Cc2ccc(C(F)(F)F)c(F)c2)C[C@H](C)N1S(=O)(=O)c1cccc2c1CC(C(=O)O)C2 (stereo partly drawn) [Example 1, 4-(4-(3-Fluoro-4-(trifluoromethyl)benzyl)-cis-2,6-dimethylpiperazin-1-ylsulfonyl)-2,3-dihydro-1H-indene-2-carboxylic acid]	> 100	< 5	> 100
C[C@@H]1CN(C(=O)CCc2ccc(OC(F)(F)F)cc2)C[C@H](C)N1S(=O)(=O)c1cccc2c1CC(C(=O)O)C2 (stereo partly drawn) [Example 8, 4-(cis-2,6-Dimethyl-4-(3-(4-(trifluoromethoxy)phenyl)propanoyl)piperazin-1-ylsulfonyl)-2,3-dihydro-1H-indene-2-carboxylic acid]	> 100	< 5	> 100
O=C(O)C1Cc2cccc(S(=O)(=O)N3CCN(C(=O)CCc4ccc(OC(F)(F)F)cc4)CC3)c2C1 (stereo not drawn) [Example 16, 4-(4-(3-(4-(Trifluoromethoxy)phenyl)propanoyl)piperazin-1-ylsulfonyl)-2,3-dihydro-1H-indene-2-carboxylic acid]	> 100	5 to 100	> 100
O=C(O)C1Cc2cccc(S(=O)(=O)N3CCN(C(=O)Cc4ccc(OC(F)(F)F)cc4)CC3)c2C1 (stereo not drawn) [Example 19, 4-(4-(2-(4-(trifluoromethoxy)phenyl)acetyl)piperazin-1-ylsulfonyl)-2,3-dihydro-1H-indene-2-carboxylic acid]	5 to 100	5 to 100	> 100

Reference: US20070270434A1, “SULFONYL-SUBSTITUTED BICYCLIC COMPOUNDS AS MODULATORS OF PPAR” (KALYPSYS, INC., priority 2006, published 2007)
